According to a melting point compilation (Tetko et al.; mined from patent text by program, amines drawn as free bases though some values may be those of a salt):

| Structure (SMILES) | melting point [°C] |
| --- | --- |
| COC(=O)CN(CC(=O)OC)[C@H]1CC[C@H](Nc2ncc3ncnc(Nc4ccc(F)c(Cl)c4)c3n2)CC1 | 181 to 184 |
| CCCCOc1ncc(C(C)O)cc1-c1nc2c(CC)n(C3CN(CC)C3)nc2c(=O)[nH]1 (stereo not drawn) | 117 to 119 |
| Cc1cc([C@@H](O)[C@@H]2[C@@H](C)CCCC2(C)C)ccc1C#N | 111 to 113 |
| CCCc1ccc2nc(SCC)c(S(N)(=O)=O)n2n1 | 176 to 177 |
| NC(=O)c1ccc(OCCCC(=O)O)cc1 | 162 to 164 |
| CC(=O)OCC1OC(OC2C(COC(C)=O)OC(Oc3ccc([N+](=O)[O-])cc3)C(OC(C)=O)C2OC(C)=O)C(OC(C)=O)C(OC(C)=O)C1OC(C)=O (stereo not drawn) | 165 to 170 |
| CC(=O)N[C@@H](C)COC1CCN(c2nc3cc(OCC4CC4)ccc3o2)CC1 | 99 to 100 |
| Cc1nc2cccc3n(CCCCCCNS(=O)(=O)CC(F)(F)F)c(=O)c1n23 | 141 to 143 |
| Nc1ncnc2c1c(-c1ccccc1Cl)cn2-c1ccccc1 | 175 to 176 |
| Cc1sccc1C(=O)O | 71 to 73 |
| COC(=O)c1nc(-c2csc3ccc(C)cc23)nc(N)c1Cl | 164 to 165 |
| C=C(C(=O)c1ccc(OCC(=O)O)c(Cl)c1Cl)C(C)(C)C | 160 to 162 |
| CS(=O)(=O)c1ccc(-c2cc(CO[N+](=O)[O-])nn2C2CCCCCC2)cc1 | 119 to 120 |
| CC(C)(C)OC(=O)Cc1nn(Cc2nc3cc(C(F)(F)F)ccc3s2)c(=O)c2cccnc12 | 121 to 122 |
| CCOC(=O)CCNC(=O)N1CCn2c(c(C(N)=O)c(Cl)c2-c2ccccc2)C1 | 50 to 60 |
| Cn1ncc2c(C(F)F)cc(-c3ccc(N)c(C#N)c3)nc21 | 251 |
| O=C1CNc2cccc(Oc3cc(-c4ccc(C(F)(F)F)cc4)ncn3)c2N1 | 305 |
| Oc1cc(Cl)nc(Cl)c1 | 201 to 202 |
| CCOC(=O)CCCn1cc(C(=O)c2ccc(N)c(OCCCCl)c2)c2ccccc21 | 93 to 95 |
| O=S1(=O)CNc2cccc3cccc1c23 | 206 to 207 |
| N#CCOc1cccc2c1SCCC2 | 66 |
| CC(=O)n1nc(C(N)=O)c2ccccc21 | 165 to 171 |
| CC(C)OC(=O)C(C)Oc1ncn(-c2ccccc2)n1 (stereo not drawn) | 104 |

Next, values leading:

| melting point [°C] | Structure (SMILES) |
| --- | --- |
| 61 to 62 | CCN(CC)CCn1c(=Nc2ccccc2)sc2ncccc2c1=O |
| 165 to 168 | O=C1N(C(c2ccccc2)c2ccccc2)c2ccccc2C12COc1cc3c(cc12)OCCCO3 (stereo not drawn) |
| 185 to 186 | Cc1csc(N2CCN(Cc3ccc(C(=O)NCc4ccccc4)cc3)C2=O)n1 |
| 200 to 201 | COc1ccc(C2=C(NC(=O)Nc3c(C)cccc3C(C)C)CN(C)c3ccc(Cl)cc32)cc1OC |
| 148 | COc1ccc2nc(-c3ccccc3)cc(C(=O)Nc3ccc(CCCCN(C)Cc4ccc(OC)c(OC)c4)cc3)c2c1 |
| 209 to 210 | COC(=O)c1ccc(-c2ccc3cc(OCCCCC=C=O)c(C45CC6CC(CC(C6)C4)C5)cc3c2)cc1 |
| 66 to 68 | CCCOc1ccc(-c2cccc(/C=C/C(=O)OCC)c2)cc1OC |
| 185 to 187 | COc1ccc(-c2ccc3ccc(NC(=O)c4ccccc4)nc3n2)cc1 |
| 290 to 292 | CC(=O)Nc1nc2ccc(S(=O)(=O)n3c(CCC(=O)O)cc4cc(C(F)(F)F)ccc43)cc2s1 |
| 149 to 151 | O=C(Oc1ccccc1)N1CCC2(CC1)c1ccccc1Sc1ccccc12 |
| 51 to 55 | Cc1noc(NS(=O)(=O)c2ccsc2C(=O)N(C)c2ccccc2)c1Br |
| 139 to 142 | O=C(O)c1ccccc1Oc1ccc2ccccc2c1 |
| 206 to 208 | CC(C)(C)Sc1c(CC(C)(C)C(=O)O)n(Cc2ccc(Cl)cc2)c2ccc(OCc3cccnc3)cc12 |
| 160 to 161 | Cc1nnc(NC(=O)C(c2ccccc2)c2ccccc2)o1 |
| 102 to 104 | CCOC(=O)c1c2ccc(Cl)cc2c(-c2ccccc2)n1CCNC(=O)OCc1ccccc1 |
